Source: patent US9115127B2 (AMGEN INC., priority 2010, dated 2015)

Each molecule was assayed against T1, wild-type human ALK (cytoplasmic domain, amino acids 1058-1620, N-terminal GST fusion) (Homo sapiens, UniProt Q9UM73) (assay: ALK Inhibition in Enzyme Assay (Lance TR-FRET kinase assay)). Conditions: not given.
T1 construct: The cytoplasmic domain (amino acids 1058-1620) of wild-type human ALK; GST (N); made in house; host or cells: SF9 insect cells
T1 sequence (Q9UM73 1058-1620): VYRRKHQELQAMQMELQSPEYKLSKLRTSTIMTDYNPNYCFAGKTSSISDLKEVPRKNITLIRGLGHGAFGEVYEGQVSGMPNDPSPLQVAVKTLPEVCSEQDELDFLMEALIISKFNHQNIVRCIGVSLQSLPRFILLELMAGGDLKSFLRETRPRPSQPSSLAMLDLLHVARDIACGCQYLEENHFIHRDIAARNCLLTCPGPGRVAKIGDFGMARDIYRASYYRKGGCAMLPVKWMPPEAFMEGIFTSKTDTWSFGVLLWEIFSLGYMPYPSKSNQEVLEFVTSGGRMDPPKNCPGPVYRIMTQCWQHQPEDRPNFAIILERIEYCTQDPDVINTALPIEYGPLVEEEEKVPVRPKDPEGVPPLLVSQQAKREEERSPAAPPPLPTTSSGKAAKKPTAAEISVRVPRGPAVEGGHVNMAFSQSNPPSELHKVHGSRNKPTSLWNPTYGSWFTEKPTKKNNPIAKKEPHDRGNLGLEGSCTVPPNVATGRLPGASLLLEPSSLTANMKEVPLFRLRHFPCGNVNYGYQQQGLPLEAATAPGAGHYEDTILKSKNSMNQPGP
Format: biochemical
How it was run: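 Purified enzyme phosphorylated a biotinylated peptide substrate for 90 minutes at room temperature. Reactions were stopped with 20 mM EDTA in 50 mM Tris (pH 7.5), 100 mM NaCl, 0.05% BSA, 0.1% Tween-20. Phosphopeptide was detected by TR-FRET with SA-APC and Eu-W1024 anti-phosphotyrosine antibody PT66, excitation 320 nm.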
With CC(C)NC(=O)[C@H]1CC[C@@H](n2/c(=N/C(=O)c3ccc(Br)cc3)[nH]c3cnc(OCCN4CCCCC4)cc32)CC1 [Example 95, (E)-4-Bromo-N-(1-(cis-4-(isopropylcarbamoyl)cyclohexyl)-6-(2-(piperidin-1-yl)ethoxy)-1H-imidazo[4,5-c]pyridin-2(3H)-ylidene)benzamide] the IC50 was < 50 nM. With CC(C)NC(=O)[C@H]1CC[C@@H](n2/c(=N/C(=O)c3cccnc3)[nH]c3cnc(OCCN4CCCCC4)cc32)CC1 [Example 96, (E)-N-(1-(cis-4-(Isopropylcarbamoyl)cyclohexyl)-6-(2-(piperidin-1-yl)ethoxy)-1H-imidazo[4,5-c]pyridin-2(3H)-ylidene)nicotinamide] the IC50 was < 50 nM. For CC(C)NC(=O)[C@H]1CC[C@@H](n2/c(=N/C(=O)c3ccnnc3)[nH]c3cnc(OCCN4CCCCC4)cc32)CC1 [Example 97, (E)-N-(1-(cis-4-(Isopropylcarbamoyl)cyclohexyl)-6-(2-(piperidin-1-yl)ethoxy)-1H-imidazo[4,5-c]pyridin-2(3H)-ylidene)pyridazine-4-carboxamide], the IC50 was 50 to 100 nM. CC(C)NC(=O)[C@H]1CC[C@@H](n2/c(=N/C(=O)c3cc(F)cc(F)c3)[nH]c3cnc(OCCN4CCCCC4)cc32)CC1 [Example 98, (E)-3,5-Difluoro-N-(1-(cis-4-(isopropylcarbamoyl)cyclohexyl)-6-(2-(piperidin-1-yl)ethoxy)-1H-imidazo[4,5-c]pyridin-2(3H)-ylidene)benzamide] was tested, and the IC50 was < 50 nM. Molecule C=CCNS(=O)(=O)c1cccc(C(=O)/N=c2\[nH]c3cnc(OCCN4CCCCC4)cc3n2[C@H]2CC[C@@H](C(=O)NC(C)C)CC2)c1 [Example 99, (E)-3-(N-Allylsulfamoyl)-N-(1-(cis-4-(isopropylcarbamoyl)cyclohexyl)-6-(2-(piperidin-1-yl)ethoxy)-1H-imidazo[4,5-c]pyridin-2(3H)-ylidene)benzamide] has an IC50 of 100 to 1000 nM. COc1ccc(C(=O)/N=c2\[nH]c3cnc(OCCN4CCCCC4)cc3n2[C@H]2CC[C@@H](C(=O)NC(C)C)CC2)cc1 [Example 100, (E)-N-(1-(cis-4-(Isopropylcarbamoyl)cyclohexyl)-6-(2-(piperidin-1-yl)ethoxy)-1H-imidazo[4,5-c]pyridin-2(3H)-ylidene)-4-methoxybenzamide] gave an IC50 of 50 to 100 nM. For CC(C)NC(=O)[C@H]1CC[C@@H](n2/c(=N/C(=O)c3ccc(F)c(Cl)c3)[nH]c3cnc(OCCN4CCCCC4)cc32)CC1 [Example 101, (E)-3-Chloro-4-fluoro-N-(1-(cis-4-(isopropylcarbamoyl)cyclohexyl)-6-(2-(piperidin-1-yl)ethoxy)-1H-imidazo[4,5-c]pyridin-2(3H)-ylidene)benzamide], the IC50 was < 50 nM. For CC(C)NC(=O)[C@H]1CC[C@@H](n2/c(=N/C(=O)c3ccc(C(F)(F)F)cc3)[nH]c3cnc(OCCN4CCCCC4)cc32)CC1 [Example 102, (E)-N-(1-(cis-4-(Isopropylcarbamoyl)cyclohexyl)-6-(2-(piperidin-1-yl)ethoxy)-1H-imidazo[4,5-c]pyridin-2(3H)-ylidene)-4-(trifluoromethyl)benzamide], the IC50 was 100 to 1000 nM. CC(C)NC(=O)[C@H]1CC[C@@H](n2/c(=N/C(=O)c3ccc(C#N)c(F)c3)[nH]c3cnc(OCCN4CCCCC4)cc32)CC1 [Example 103, (E)-4-Cyano-3-fluoro-N-(1-(cis-4-(isopropylcarbamoyl)cyclohexyl)-6-(2-(piperidin-1-yl)ethoxy)-1H-imidazo[4,5-c]pyridin-2(3H)-ylidene)benzamide] was tested, and the IC50 was < 50 nM. Molecule CC(C)NC(=O)[C@H]1CC[C@@H](n2/c(=N/C(=O)c3ccc4cc[nH]c4c3)[nH]c3cnc(OCCN4CCCCC4)cc32)CC1 [Example 104, (E)-N-(1-(cis-4-(Isopropylcarbamoyl)cyclohexyl)-6-(2-(piperidin-1-yl)ethoxy)-1H-imidazo[4,5-c]pyridin-2(3H)-ylidene)-1H-indole-6-carboxamide] has an IC50 of 100 to 1000 nM. CNc1ccc(C(=O)/N=c2\[nH]c3cnc(OCCN4CCCCC4)cc3n2[C@H]2CC[C@@H](C(=O)NC(C)C)CC2)cc1 [Example 105, (E)-N-(1-(cis-4-(Isopropylcarbamoyl)cyclohexyl)-6-(2-(piperidin-1-yl)ethoxy)-1H-imidazo[4,5-c]pyridin-2(3H)-ylidene)-4-(methylamino)benzamide] gave an IC50 of 1000 to 5000 nM. In the case of CC(C)NC(=O)[C@H]1CC[C@@H](n2/c(=N/C(=O)c3ccnc(F)c3)[nH]c3cnc(OCCN4CCCCC4)cc32)CC1 [Example 106, (E)-2-Fluoro-N-(1-(cis-4-(isopropylcarbamoyl)cyclohexyl)-6-(2-(piperidin-1-yl)ethoxy)-1H-imidazo[4,5-c]pyridin-2(3H)-ylidene)isonicotinamide], the IC50 is reported as < 50 nM. CC(C)NC(=O)[C@H]1CC[C@@H](n2/c(=N/C(=O)c3ccc(F)c(F)c3)[nH]c3cnc(OCCN4CCCCC4)cc32)CC1 [Example 107, (E)-3,4-Difluoro-N-(1-(cis-4-(isopropylcarbamoyl)cyclohexyl)-6-(2-(piperidin-1-yl)ethoxy)-1H-imidazo[4,5-c]pyridin-2(3H)-ylidene)benzamide] was tested, and the IC50 was < 50 nM. For CC(C)NC(=O)[C@H]1CC[C@@H](n2/c(=N/C(=O)c3cccc(F)c3)[nH]c3cnc(OCCN4CCCCC4)cc32)CC1 [Example 108, (E)-3-Fluoro-N-(1-(cis-4-(isopropylcarbamoyl)cyclohexyl)-6-(2-(piperidin-1-yl)ethoxy)-1H-imidazo[4,5-c]pyridin-2(3H)-ylidene)benzamide], the IC50 was < 50 nM. For CC(C)NC(=O)[C@H]1CC[C@@H](n2/c(=N/C(=O)c3ccc4ccn(C)c4c3)[nH]c3cnc(OCCN4CCCCC4)cc32)CC1 [Example 109, (E)-N-(1-(cis-4-(Isopropylcarbamoyl)cyclohexyl)-6-(2-(piperidin-1-yl)ethoxy)-1H-imidazo[4,5-c]pyridin-2(3H)-ylidene)-1-methyl-1H-indole-6-carboxamide], the IC50 was 1000 to 5000 nM. For CC(C)NC(=O)[C@H]1CC[C@@H](n2/c(=N/C(=O)c3ccccn3)[nH]c3cnc(OCCN4CCCCC4)cc32)CC1 [Example 110, (E)-N-(1-(cis-4-(Isopropylcarbamoyl)cyclohexyl)-6-(2-(piperidin-1-yl)ethoxy)-1H-imidazo[4,5-c]pyridin-2(3H)-ylidene)picolinamide], the IC50 was 1000 to 5000 nM. CC(C)NC(=O)[C@H]1CC[C@@H](n2/c(=N/C(=O)c3cc(F)cc(C#N)c3)[nH]c3cnc(OCCN4CCCCC4)cc32)CC1 [Example 111, (E)-3-Cyano-5-fluoro-N-(1-(cis-4-(isopropylcarbamoyl)cyclohexyl)-6-(2-(piperidin-1-yl)ethoxy)-1H-imidazo[4,5-c]pyridin-2(3H)-ylidene)benzamide] was tested, and the IC50 was < 50 nM. Molecule CC(C)NC(=O)[C@H]1CC[C@@H](n2/c(=N/C(=O)C3CCCCC3)[nH]c3cnc(OCCN4CCCCC4)cc32)CC1 [Example 112, cis-4-((E)-2-(Cyclohexanecarbonylimino)-6-(2-(piperidin-1-yl)ethoxy)-2,3-dihydro-1H-imidazo[4,5-c]pyridin-1-yl)-N-isopropylcyclohexanecarboxamide] has an IC50 of 5000 to 10000 nM. COc1cc(C(=O)/N=c2\[nH]c3cnc(OCCN4CCCCC4)cc3n2[C@H]2CC[C@@H](C(=O)NC(C)C)CC2)ccc1F [Example 113, (E)-4-Fluoro-N-(1-(cis-4-(isopropylcarbamoyl)cyclohexyl)-6-(2-(piperidin-1-yl)ethoxy)-1H-imidazo[4,5-c]pyridin-2(3H)-ylidene)-3-methoxybenzamide] was tested, and the IC50 was 100 to 1000 nM. Molecule CC(C)NC(=O)[C@H]1CC[C@@H](n2/c(=N/C(=O)c3ccc(F)c(C(F)(F)F)c3)[nH]c3cnc(OCCN4CCCCC4)cc32)CC1 [Example 114, (E)-4-Fluoro-N-(1-(cis-4-(isopropylcarbamoyl)cyclohexyl)-6-(2-(piperidin-1-yl)ethoxy)-1H-imidazo[4,5-c]pyridin-2(3H)-ylidene)-3-(trifluoromethyl)benzamide] has an IC50 of 50 to 100 nM. With CC(C)NC(=O)[C@H]1CC[C@@H](n2/c(=N/C(=O)c3cc(F)cc(Cl)c3)[nH]c3cnc(OCCN4CCCCC4)cc32)CC1 [Example 115, (E)-3-Chloro-5-fluoro-N-(1-(cis-4-(isopropylcarbamoyl)cyclohexyl)-6-(2-(piperidin-1-yl)ethoxy)-1H-imidazo[4,5-c]pyridin-2 (3H)-ylidene)benzamide] the IC50 was < 50 nM. Molecule COc1cccc(C(=O)/N=c2\[nH]c3cnc(OCCN4CCCCC4)cc3n2[C@H]2CC[C@@H](C(=O)NC(C)C)CC2)c1 [Example 116, (E)-N-(1-(cis-4-(Isopropylcarbamoyl)cyclohexyl)-6-(2-(piperidin-1-yl)ethoxy)-1H-imidazo[4,5-c]pyridin-2(3H)-ylidene)-3-methoxybenzamide] has an IC50 of 50 to 100 nM. Work on COc1cc(F)cc(C(=O)/N=c2\[nH]c3cnc(OCCN4CCCCC4)cc3n2[C@H]2CC[C@@H](C(=O)NC(C)C)CC2)c1 [Example 117, (E)-3-Fluoro-N-(1-(cis-4-(isopropylcarbamoyl)cyclohexyl)-6-(2-(piperidin-1-yl)ethoxy)-1H-imidazo[4,5-c]pyridin-2(3H)-ylidene)-5-methoxybenzamide] yielded an IC50 of 50 to 100 nM. For CC(C)NC(=O)[C@H]1CC[C@@H](n2/c(=N/C(=O)c3cccc(Cl)c3)[nH]c3cnc(OCCN4CCCCC4)cc32)CC1 [Example 119, (E)-3-Chloro-N-(1-(cis-4-(isopropylcarbamoyl)cyclohexyl)-6-(2-(piperidin-1-yl)ethoxy)-1H-imidazo[4,5-c]pyridin-2(3H)-ylidene)benzamide], the IC50 was < 50 nM.

Same assay, conditions: 2 nM enzyme, ATP 40 μM (Km apparent), 90 minutes at room temperature; mean of three replicates
With CC(C)NC(=O)[C@H]1CC[C@@H](n2/c(=N/C(=O)c3ccc(F)c(Cl)c3)[nH]c3cnc(OCCN4CCCCC4)cc32)CC1 [Example 118, (E)-3-Chloro-4-fluoro-N-(1-(cis-4-(isopropylcarbamoyl)cyclohexyl)-6-(2-(piperidin-1-yl)ethoxy)-1H-imidazo[4,5-c]pyridin-2(3H)-ylidene)benzamide] the IC50 was < 50 nM.
